Each structure is given as a SMILES string.

In the experiment the target is T1, renin (Homo sapiens, UniProt P00797).
T1 sequence (P00797 67-406): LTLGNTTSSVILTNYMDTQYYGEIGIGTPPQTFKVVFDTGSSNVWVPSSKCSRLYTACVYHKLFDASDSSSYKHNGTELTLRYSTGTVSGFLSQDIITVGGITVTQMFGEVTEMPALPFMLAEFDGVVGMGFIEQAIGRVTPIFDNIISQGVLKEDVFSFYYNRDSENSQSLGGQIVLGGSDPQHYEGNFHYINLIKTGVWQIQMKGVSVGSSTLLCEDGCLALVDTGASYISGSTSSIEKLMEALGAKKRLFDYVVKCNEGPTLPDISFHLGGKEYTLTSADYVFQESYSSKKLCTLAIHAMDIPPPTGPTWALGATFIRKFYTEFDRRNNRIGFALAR
In words: in vitro renin inhibitory activity, standard radioimmunoassay for angiotensin I. Format: biochemical. The procedure:
The effectiveness of the aforementioned compounds is determined by a test for in vitro renin inhibitory activity. This activity is determined by a standard radioimmunoassay for angiotensin I. In this assay the enzyme, renin, incubated for two hours at 37° in the presence of a substrate, angiotensinogen, generates the product, angiotensin I. Test compounds are added to the incubation mixture.
`CCC(C)CNC(=O)CCC(O)[C@H](CC1CCCCC1)NC(=O)[C@H](Cc1c[nH]cn1)NC(=O)[C@H](Cc1cccc2ccccc12)NC(=O)OCc1ccccc1` (some centres unmarked) [Example 77] had a half-maximal inhibitory concentration (IC50) of 1600 nM.

Regarding `CC(C)CC(=O)N[C@@H](Cc1ccccc1)C(=O)N[C@@H](Cc1c[nH]cn1)C(=O)N[C@@H](CC1CCCCC1)C(O)CC(CC(C)C)C(=O)NCc1ccccc1` (some centres unmarked) [Example 78], the half-inhibitory concentration (IC50) came out at 240 nM.

The compound `CC(C)CC(CC(O)[C@H](CC1CCCCC1)NC(=O)OC(C)(C)C)C(=O)N[C@@H](CC(C)C)[C@@H](O)CC(=O)N[C@@H](CC(C)C)C(=O)NCc1ccccc1` (some centres unmarked) [Example 79] gave an IC50 of 3800 nM. Compared with the last compound, the IC50 is about 16-fold higher.

As for `CC(C)CC(=O)N[C@@H](Cc1ccccc1)C(=O)N[C@@H](Cc1c[nH]cn1)C(=O)N[C@@H](CC1CCCCC1)C(O)CCC(=O)NCc1cccc(CN)c1` (some centres unmarked) [Example 80], inhibition was half-maximal at 2100 nM (IC50). Against the preceding compound, the IC50 is about 1.8-fold lower.

With `CC(C)CC(=O)N[C@@H](Cc1ccccc1)C(=O)N[C@@H](Cc1c[nH]cn1)C(=O)N[C@@H](CC1CCCCC1)C(O)CC(CC(C)C)C(=O)NCc1cccc(CN)c1` (some centres unmarked) [Example 81], the IC50 is 54 nM. Compared with the last compound, the IC50 is about 39-fold lower.

For `CC(C)CC(=O)N[C@@H](Cc1ccccc1)C(=O)N[C@@H](Cc1c[nH]cn1)C(=O)N[C@@H](CC1CCCCC1)C(O)CCC(=O)N[C@@H](CC(C)C)C(=O)NCc1cccc(CN)c1` (some centres unmarked) [Example 82], the half-maximal inhibitory concentration (IC50) was 120 nM. Compared with the last compound, the IC50 is about 2.2-fold higher.

Take `CCC(C)CNC(=O)/C=C/C(O)[C@H](Cc1ccccc1)NC(=O)[C@H](Cc1c[nH]cn1)NC(=O)[C@H](Cc1ccccc1)NC(=O)OC(C)(C)C` (some centres unmarked) [Example 84, BOC-PHE-HIS-PHE[CHOHCH=CHCO]NHCH2 CH(CH3)CH2 CH3]: 1400 nM corresponded to half-maximal inhibition (IC50).

As to `CCC(C)CNC(=O)CCC(O)[C@H](Cc1ccccc1)NC(=O)[C@H](Cc1c[nH]cn1)NC(=O)[C@H](Cc1ccccc1)NC(=O)OC(C)(C)C` (some centres unmarked) [Example 85, BOC-PHE-HIS-PHE[CHOHCH2 ]GLY-NHCH2 CH(CH3)CH2 CH3], the IC50 amounted to 75 nM.

One may read the IC50 as the concentration needed to halve the response being measured. Higher therefore signals weaker potency in that assay.

For the origin of these results see patent publication US4743585A (Warner-Lambert Company, priority 1986, dated 1988).
